Test results from patent US4697036A, “Process for the preparation of optically active alpha-arylalkanoic acids and novel intermediates thereof” (Zambon S.p.A., priority 1984, dated 1987).

Experiments:
Format in all cases: in vivo
[1] = Anti-inflammatory activity by oral administration; conditions: for ED50: oral, dose column in μM/kg/os, after 3 h, read-out: ED50 (L.C. 95%)
Excerpt: A further unexpected property of the compounds of formula (C) is that they are in themselves pharmacologically active compounds. […] The following tables give the data relative to the anti-inflammatory and antipyretic activity of the compounds (D) in which: |Anti-inflammatory activity of the derivatives (a) and |(b) with respect to Naproxen and 5-bromo-Naproxen (c) |by oral administration

[2] = Antipyretic activity by oral administration in rats (change in body temperature)
Excerpt: Antipyretic activity of compound (a) and (b) with respect to
Naproxen and 5-bromo-Naproxen (c)
by oral administration in rats

[3] = Antipyretic activity by peritoneal administration in rats (change in body temperature); conditions: peritoneal administration (title)

SMILES | Inhibition (after 3 h) ([1]; 10 μM/kg/os) [%] | Inhibition (after 3 h) ([1]; 30 μM/kg/os) [%] | Inhibition (after 3 h) ([1]; 100 μM/kg/os) [%] | ED50 [1] [µmol/kg] | Change in body temperature after 1 hour ([2]; 10 μM/kg/oral) [°C] | Change in body temperature after 2 hours ([2]; 10 μM/kg/oral) | Change in body temperature after 1 hour ([2]; 30 μM/kg/oral) | Change in body temperature after 2 hours ([2]; 30 μM/kg/oral) [°C] | Change in body temperature after 1 hour ([2]; 100 μM/kg/oral) | Change in body temperature after 2 hours ([2]; 100 μM/kg/oral) [°C] | Change in body temperature after 1 hour ([2]; 300 μM/kg/oral) | Change in body temperature after 2 hours ([2]; 300 μM/kg/oral) [°C] | Change in body temperature after 30 min ([3]; 10 μM/kg) [°C] | Change in body temperature after 1 hour ([3]; 10 μM/kg) [°C] | Change in body temperature after 4 hours ([3]; 10 μM/kg) [°C] | Change in body temperature after 30 min ([3]; 30 μM/kg) [°C] | Change in body temperature after 1 hour ([3]; 30 μM/kg) [°C] | Change in body temperature after 4 hours ([3]; 30 μM/kg) | also measured
COC(=O)C(O)C(OC(=O)C(C)c1ccc2cc(OC)ccc2c1)C(=O)OC (stereo not shown) [(a)] | 0 | 0 | 16 | 175 | -0.02 | +0.02 °C | +0.07 °C | -0.61 | +0.01 °C | -0.76 | +0.03 °C | -0.81 | -0.26 | -0.52 | -0.19 | -0.61 | -1.02 | -0.56 °C | –
COC(=O)C(O)C(OC(=O)C(C)c1ccc2c(Br)c(OC)ccc2c1)C(=O)OC (stereo not shown) [(b)] | 3 | 14 | 20 | 160 | -0.17 | -0.19 °C | -0.49 °C | -0.68 | -0.46 °C | -0.68 | – | – | -0.24 | -0.52 | -0.26 | -0.77 | -0.87 | -0.44 °C | –
COc1ccc2cc([C@H](C)C(=O)O)ccc2c1Br [(c), S(+)-2-(5-bromo-6-methoxy-2-naphthyl)-propionic acid, reference compound] | 6 | 34 | 34 | 196 | – | – | -0.17 °C | -0.66 | -1.33 °C | -1.67 | -1.42 °C | -1.84 | – | – | – | -0.55 | -1.01 | +0.06 °C | Inhibition (after 3 h) ([1]; 300 μM/kg/os): 56%; Change in body temperature after 30 min ([3]; 100 μM/kg): -0.78 °C; Change in body temperature after 1 hour ([3]; 100 μM/kg): -1.45 °C; Change in body temperature after 4 hours ([3]; 100 μM/kg): -0.99 °C
COc1ccc2cc([C@H](C)C(=O)O)ccc2c1 [Naproxen, S(+)2-(6-methoxy-2-naphtyl)-propionic acid, reference compound] | 38 | 45 | 66 | 31 | -1.22 | -1.48 °C | -1.86 °C | -1.89 | – | – | – | – | -1.00 | -1.10 | -0.86 | – | – | – | Change in body temperature after 1 hour ([2]; 3 μM/kg/oral): -0.38 °C; Change in body temperature after 2 hours ([2]; 3 μM/kg/oral): -0.52 °C
